Measured values published in patent US8158647B2, “Substituted pyrrolopyridines and pyrazolopyridines as kinase modulators” (SGX Pharmaceuticals, Inc., priority 2007, dated 2012).

Legend:
[1] = biological target: T1, purified and unphosphorylated T315I Abl kinase domain (ABL_T315I_0P) (Mus musculus, UniProt P00520, T315I); experiment: c-Abl T315I (unphosphorylated kinase domain) pyruvate kinase/lactate dehydrogenase coupled enzyme assay; format: biochemical; conditions: 10 μM ATP
T1 construct: The c-Abl T3151 KD (kinase domain) was purified as follows; Met-Ser-Leu (vector-derived residues) (N); made in house; host or cells: E. coli BL21(DE3) strains (Codon+RIL, or pSA0145 for the lambda phosphatase co-expression plasmid)
T1 sequence (P00520 242-493 T315I limits assumed): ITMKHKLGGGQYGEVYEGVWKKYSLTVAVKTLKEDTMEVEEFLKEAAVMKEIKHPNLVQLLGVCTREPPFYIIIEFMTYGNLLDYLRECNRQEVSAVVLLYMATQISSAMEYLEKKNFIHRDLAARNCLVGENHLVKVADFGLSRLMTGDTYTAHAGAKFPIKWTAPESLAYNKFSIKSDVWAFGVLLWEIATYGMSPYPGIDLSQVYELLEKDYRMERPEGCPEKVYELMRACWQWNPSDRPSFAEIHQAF
Source text: Although the first of these examples uses the kinase domain of a mutant form of Abl T315I (“Abl T315I KD”), the kinase assays may use various forms of mutant and wild type enzymes, including, for example, the entire protein, the kinase domain, or a portion thereof (e.g. Abl Y393F). The kinases used in the assays may also be of varying phosphorylation states. In the c-Abl example, a mutant kinase at a zero phosphorylation state was used.
c-Abl Pyruvate Kinase/Lactate Dehydrogenase Coupled Enzyme Assay
In the c-Abl Pyruvate Kinase (PK)/Lactate Dehydrogenase (LDH) Coupled Assay the protein kinase dependant phosphorylation of a substrate peptide was coupled to the oxidation of NADH. The oxidation of NADH to NAD+ was detected by monitoring a decrease in absorbance at 340 nm.
Materials: Abl substrate peptide=EAIYAAPFAKKK-OH (SEQ ID NO: 1) (Biopeptide, San Diego, Calif.); […]NADH (Sigma Cat#N-8129, FW=709.4); 2M MgCl2; 1M HEPES buffer, pH 7.5; Phosphoenolpyruvate (PEP) (Sigma Cat#P-7002, FW=234); Lactate dehydrogenase (LDH) (Worthington Biochemical Cat#2756); Pyruvate Kinase (PK) (Sigma Cat#P-9136); ATP (Sigma Cat#A-3377, FW=551); Greiner 384-well UV star plate; and purified and unphosphorylated T3151 Abl kinase domain.
Stock Solutions: 10 mM NADH (7.09 mg/ml in miliQH2O) made fresh daily; 10 mM Abl substrate peptide (13.4 mg/ml in miliQH2O) stored at −20° C.; 100 mM HEPES buffer, pH 7.5 (5 ml 1M stock+45 ml miliQH2O); 100mM MgCl2 (5 ml 2M MgCl2+95 ml dH2O); 100 mM PEP (23.4 mg/ml in dH2O) stored at −20° C.; 10mM ATP (5.51 mg/ml in dH2O) stored at −20° C. (diluted 50 μl into total of 10 ml miliQH2O daily=50 μM ATP working stock); 1000 U/ml PK (U/mg varies with lot) flash-frozen under liquid N2 and stored at −80° C.; and 1000 U/ml LDH (U/mg varies with lot) flash-frozen under liquid N2 and stored at −80° C.
Standard Assay Setup for 384-well format (50 μl reaction): 300 μM NADH; 10 mM MgCl2; 2 mM PEP; 45 U/ml PK; 60 U/ml LDH; 200 μM Abl substrate peptide; 2.5 μl test compound (in DMSO); 2 μg/ml Abl kinase domain; 10 μM ATP; 100 mM HEPES buffer. Positive controls contained DMSO with no test compound. Negative controls contained 5 μl of 0.5M EDTA (50 mM in the assay). The dephosphorylated form of the c-Abl T315I mutant was used in the biochemical screening assays. The kinase reaction was initiated at time t=0 by the addition of ATP.
Activity was measured by following the time-dependent loss of NADH by absorbance spectroscopy at 340 nm. The linear portion of the resulting progress curve was then analyzed by linear regression to get the activity in absorbance units/time, reported as the slope of that best fit line (moles/unit time can be calculated from using molar extinction coefficient for NADH at 340 nm, 6250M^−1 cm^−1).
Screening data was evaluated using the equation: Z′=1-[3*(σ++σ−)/|μ+−μ−|] (Zhang, et al., 1999 J Biomol Screening 4(2) 67-73), where μ denotes the mean and σ the standard deviation. The subscript designates positive or negative controls. The Z′ score for a robust screening assay should be ≧0.50. The typical threshold=μ+−3*σ+−. Any value that falls below the threshold was designated a “hit”.
Dose response was analyzed using the equation: y=min+{(max−min)/(1+10^[compound]−logIC50)}, where y is the observed initial slope, max=the slope in the absence of inhibitor, min=the slope at infinite inhibitor, and the IC50 is the [compound] that corresponds to ½ the total observed amplitude (Amplitude=max−min).
To measure modulation, activation, or inhibition of Abl KD, a test compound was added to the assay at a range of concentrations. Inhibitors may inhibit Abl KD activity at an IC50 in the micromolar range, the nanomolar range, or, for example, in the subnanomolar range.
An open-reading frame for c-Abl was amplified from a Mus musculus (mouse) cDNA library prepared from freshly harvested mouse liver using a commercially available kit (Invitrogen) by PCR using the following primers: […]
The c-Abl T3151 KD (kinase domain) was purified as follows. […]

[2] = biological target: T2, ABL P210WT BAF3 cells (Homo sapiens, UniProt P00519); experiment: 96-well XTT cell survival assay, BaF3 ABL P210WT; format: cell-based; conditions: ABL P210 WT, 72 hours, read-out: CELL BIO ABL P210WT BAF3 XTT (IC50)
T2 construct: ABL P210WT BAF3; fused on or other part: P11274 (Breakpoint cluster region protein)
Procedure: (§1) MV4-11 and THP cells were maintained in Iscove's Modified Dulbecco's Medium supplemented with 10% fetal bovine serum (FBS) and penicillin/streptomycin, Ba/F3 cells were maintained in RPMI 1640 supplemented with 10% FBS, penicillin/streptomycin and 5 ng/ml recombinant mouse IL-3.
(§2) Compounds were tested in the following assays in duplicate.
(§3) 96-well XTT assay: Cells (e.g. BaF3 315I, M3511, or E255K cells) were grown in growth media containing various concentrations of compounds (duplicates) on a 96-well plate for 72 hours at 37° C. The starting cell number was 5000-8000 cells per well and volume was 120 μl. At the end of the 72-hour incubation, 40 μl of XTT labeling mixture (50:1 solution of sodium 3′-[1-(phenylamino-carbonyl)-3,4-tetrazolium]-bis(4-methoxy-6-nitro) benzene sulfonic acid hydrate and Electron-coupling reagent: PMS (N-methyl dibenzopyrazine methyl sulfate) were added to each well of the plate. After an additional 2-6 hours of incubation at 37° C., the absorbance reading at 405 nm with background correction at 650 nm was measured with a spectrophotometer.

[3] = biological target: T3, ABL T315I BAF3 cells (Homo sapiens, UniProt P00519, T315I, cells depend on it); experiment: 96-well XTT cell survival assay, BaF3 ABL T315I; format: cell-based; conditions: 72 hours, read-out: CELL BIO ABL T315I BAF3 XTT (IC50)
T3 construct: ABL T315I BAF3; fused on or other part: P11274 (Breakpoint cluster region protein)
Procedure: as §1, §2, §3

SMILES	ABL_T315I_0P (IC50) [1]	GI50 [2] [nM]	GI50 [3] [nM]
CN(C)C(=O)C(O)c1cncc(-c2cnc3[nH]cc(-c4ccccc4)c3c2Cl)c1 (stereo not drawn) [2-[5-(4-Chloro-3-phenyl-1H-pyrrolo[2,3-b]pyridin-5-yl)-pyridin-3-yl]-2-hydroxy-N,N-dimethyl-acetamide]	D (<0.01 μM)	100 to 1000	100 to 1000
CN(C)C(=O)Cc1cncc(-c2cnc3[nH]cc(-c4ccccc4)c3c2Cl)c1 [2-[5-(4-Chloro-3-phenyl-1H-pyrrolo[2,3-b]pyridin-5-yl)-pyridin-3-yl]-N,N-dimethyl-acetamide]	D (<0.01 μM)	> 1000	> 1000
CN(C)C(=O)C(O)c1cncc(-c2cnc3[nH]cc(-c4cccc(F)c4F)c3c2Cl)c1 (stereo not drawn) [2-{5-[4-Chloro-3-(2,3-difluoro-phenyl)-1H-pyrrolo[2,3-b]pyridin-5-yl]-pyridin-3-yl}-2-hydroxy-N,N-dimethyl-acetamide]	D (<0.01 μM)	100 to 1000	100 to 1000
CN(C)C(=O)C(=O)c1cncc(-c2cnc3[nH]cc(-c4cccc(F)c4F)c3c2Cl)c1 [2-{5-[4-Chloro-3-(2,3-difluoro-phenyl)-1H-pyrrolo[2,3-b]pyridin-5-yl]-pyridin-3-yl}-N,N-dimethyl-2-oxo-acetamide]	C (0.1-0.01 μM)	> 1000	> 1000
CN(C)C(=O)Cc1cncc(-c2cnc3[nH]cc(-c4cccc(F)c4F)c3c2Cl)c1 [2-{5-[4-Chloro-3-(2,3-difluoro-phenyl)-1H-pyrrolo[2,3-b]pyridin-5-yl]-pyridin-3-yl}-N,N-dimethyl-acetamide]	D (<0.01 μM)	100 to 1000	100 to 1000
COc1ccccc1-c1n[nH]c2ncc(-c3cncc(C(O)C(=O)N(C)C)c3)c(Cl)c12 (stereo not drawn) [2-{5-[4-Chloro-3-(2-methoxy-phenyl)-1H-pyrazolo[3,4-b]pyridin-5-yl]-pyridin-3-yl}-2-hydroxy-N,N-dimethyl-acetamide]	C (0.1-0.01 μM)	100 to 1000	100 to 1000

Continued, in another order:

ABL_T315I_0P (IC50) [1]	SMILES	GI50 [2] [nM]	GI50 [3] [nM]
D (<0.01 μM)	CNc1c(-c2cncc(C(O)C(=O)N(C)C)c2)cnc2[nH]cc(-c3ccccc3OC)c12 (stereo not drawn) [2-Hydroxy-2-{5-[3-(2-methoxy-phenyl)-4-methylamino-1H-pyrrolo[2,3-b]pyridin-5-yl]-pyridin-3-yl}-N,N-dimethyl-acetamide]	100 to 1000	100 to 1000
D (<0.01 μM)	COc1ccccc1-c1c[nH]c2ncc(-c3cncc(C(O)C(=O)N(C)C)c3)c(SC)c12 (stereo not drawn) [2-Hydroxy-2-{5-[3-(2-methoxy-phenyl)-4-methylsulfanyl-1H-pyrrolo[2,3-b]pyridin-5-yl]-pyridin-3-yl}-N,N-dimethyl-acetamide]	100 to 1000	10 to 100
D (<0.01 μM)	COc1ccccc1-c1c[nH]c2ncc(-c3cncc(C(O)C(=O)N(C)C)c3)c(C(F)(F)F)c12 (stereo not drawn) [2-Hydroxy-2-{5-[3-(2-methoxy-phenyl)-4-trifluoromethyl-1H-pyrrolo[2,3-b]pyridin-5-yl]-pyridin-3-yl}-N,N-dimethyl-acetamide]	10 to 100	10 to 100
C (0.1-0.01 μM)	COc1ccccc1-c1c[nH]c2ncc(-c3cncc(C(O)C(=O)N(C)C)c3)c(O)c12 (stereo not drawn) [2-Hydroxy-2-{5-[4-hydroxy-3-(2-methoxy-phenyl)-1H-pyrrolo[2,3-b]pyridin-5-yl]-pyridin-3-yl}-N,N-dimethyl-acetamide]	> 1000	> 1000
D (<0.01 μM)	COc1ccccc1-c1c[nH]c2ncc(-c3cncc(C(O)C(=O)N(C)C)c3)c(OC)c12 (stereo not drawn) [2-Hydroxy-2-{5-[4-methoxy-3-(2-methoxy-phenyl)-1H-pyrrolo[2,3-b]pyridin-5-yl]-pyridin-3-yl}-N,N-dimethyl-acetamide]	10 to 100	10 to 100
D (<0.01 μM)	COc1ccccc1-c1c[nH]c2ncc(-c3cncc(C(O)C(=O)N(C)C)c3)c(N)c12 (stereo not drawn) [2-{5-[4-Amino-3-(2-methoxy-phenyl)-1H-pyrrolo[2,3-b]pyridin-5-yl]-pyridin-3-yl}-2-hydroxy-N,N-dimethyl-acetamide]	100 to 1000	100 to 1000
D (<0.01 μM)	CN(C)C(=O)C(O)c1cncc(-c2cnc3[nH]cc(-c4ccccc4Cl)c3c2Cl)c1 (stereo not drawn) [2-{5-[4-Chloro-3-(2-chloro-phenyl)-1H-pyrrolo[2,3-b]pyridin-5-yl]-pyridin-3-yl}-2-hydroxy-N,N-dimethyl-acetamide]	100 to 1000	100 to 1000
D (<0.01 μM)	CN(C)C(=O)C(O)c1cncc(-c2cnc3[nH]cc(-c4ccccc4F)c3c2Cl)c1 (stereo not drawn) [2-{5-[4-Chloro-3-(2-fluoro-phenyl)-1H-pyrrolo[2,3-b]pyridin-5-yl]-pyridin-3-yl}-2-hydroxy-N,N-dimethyl-acetamide]	100 to 1000	100 to 1000
D (<0.01 μM)	COc1ccccc1-c1c[nH]c2ncc(-c3cncc(C(O)C(=O)N(C)C)c3)c(Cl)c12 (stereo not drawn) [2-{5-[4-Chloro-3-(2-methoxy-phenyl)-1H-pyrrolo[2,3-b]pyridin-5-yl]-pyridin-3-yl}-2-hydroxy-N,N-dimethyl-acetamide]	< 10	< 10
